Consider 103 molecules from PubChem BioAssay AID1996.

Values after ≈ are worked out from the molar mass of the structure shown.

The conditions of this data set: buffer; pH 7.4; 200.0 µM.
`Cc1ccc2c(c1)N(CC(=O)N1CCCCC1C)C(=O)CO2` (stereo not drawn) had a kinetic solubility above 45.4 µg/mL.
With `Cc1ccc(NC(=O)CCc2ccc(S(=O)(=O)N3CCOCC3)cc2)c(O)c1` the figure was 44.6 µg/mL (≈ 110 µM); with `COCc1cc(=O)[nH]c(/N=C(\N)Nc2ccc(Cl)c(Cl)c2)n1`, 0.2 µg/mL (≈ 0.584 µM).
To `CCN(CC)C(=O)c1ccc(S(=O)(=O)c2ccccc2)cc1` belongs 33.6 µg/mL (≈ 106 µM); to `S=c1[nH]ccn1CCc1ccccc1`, 22.7 µg/mL (≈ 111 µM).
To `Cc1ccc(NS(=O)(=O)c2cc(C(=O)N(C)C3CCN(C)CC3)ccc2Cl)cc1Cl.O=C(O)C(=O)O` belongs above 84.1 µg/mL; to `O=C1CN(CC(=O)NC2CCCc3ccccc32)CCN1` (stereo not drawn), above 43.1 µg/mL.
The molecule `CCOc1ccc2nc(SCC(=O)NC3CC3)sc2c1` had a kinetic solubility of 13.1 µg/mL (≈ 42.5 µM).
For the molecule `O=C1NC(c2cc(Cl)cc([N+](=O)[O-])c2O)Nc2ccccc21` (stereo not drawn), the kinetic solubility is above 48 µg/mL.
To `COc1ccc(/C=C/C(=O)N2CC(C)OC(C)C2)cc1OC` (stereo not drawn) belongs 45.4 µg/mL (≈ 149 µM); to `CCN(CC)c1ccc(/C=C2\SC(N)=NC2=O)cc1`, below 0.2 µg/mL.
To `O=C(O)c1cccc(NC2=C(N3CCOCC3)C(=O)c3ccccc3C2=O)c1` belongs above 56.8 µg/mL; to `CC(=O)Nc1nc2c(C)cc(NC(=O)C3CCCCC3)cc2s1`, 0.7 µg/mL (≈ 2.11 µM).
`Cl.O=C1CC[C@@]2(O)[C@H]3Cc4ccc(O)c5c4[C@@]2(CCN3CC2CC2)[C@H]1O5` gave a solubility (kinetic) above 56.7 µg/mL.
With `O=C1N(CN2CCOCC2)c2ccccc2C12OCC(CCl)O2` (stereo not drawn) the figure was 49.6 µg/mL (≈ 146 µM); with `Nc1c(C(=O)OCC(=O)Nc2ccccc2Br)[nH]c(=O)[nH]c1=O`, 25.6 µg/mL (≈ 66.8 µM); with `O=C(O)c1cccc(S(=O)(=O)Nc2ccc([N+](=O)[O-])cc2O)c1`, 45.3 µg/mL (≈ 134 µM).
To `Cc1nc(-c2ccccn2)nc(N(C)c2ccccc2)c1Cl` belongs 41.7 µg/mL (≈ 134 µM); to `Cl.NS(=O)(=O)c1ccc(CCNCC#Cc2ccccc2)cc1`, above 52.6 µg/mL.
With `CC(OC(=O)C1=Cc2ccccc2OC1)C(=O)NCc1ccco1` (stereo not drawn) the figure was 7.1 µg/mL (≈ 21.7 µM); with `N#Cc1ccc(OCC(=O)Nc2ccncc2)cc1`, 36 µg/mL (≈ 142 µM).
For `OCCN(Cc1ccccc1)c1ncnc2sccc12`, the kinetic solubility was above 42.8 µg/mL.
To `Cc1cc(C)c(C(=O)Nc2cccc(F)c2)c(Cl)n1` belongs above 41.8 µg/mL; to `CN1CCN(C=Nc2nc3ccccc3nc2N2CCCC2)CC1`, above 48.7 µg/mL; to `O=C(O)c1cncc(C#CCC2CCCCC2)c1`, 34.8 µg/mL (≈ 143 µM).
On to `O=C(COC(=O)COc1ccccc1F)NC1CC1`, for which the solubility (kinetic) is 37 µg/mL (≈ 138 µM).
Regarding `CN(Cc1c(F)cccc1Cl)C(=O)c1ccc(NC(=O)CC2SC(N3CCCCC3)=NC2=O)cc1` (stereo not drawn), the solubility (kinetic) is 53.2 µg/mL (≈ 103 µM).
To `Cc1ccc(NC(c2ccccc2)c2nc3ccccc3[nH]c2=O)cc1` (stereo not drawn) belongs 0.5 µg/mL (≈ 1.46 µM); to `Cc1cc(N(C)Cc2ccccc2)nc2cc(O)ccc12`, 30.5 µg/mL (≈ 110 µM); to `Cc1ccc(C2(c3ccc(C)cc3)NC(=O)N(CC(=O)NCCCN3CCCC3=O)C2=O)cc1`, above 69.4 µg/mL.
To `O=C1c2ccccc2C(=O)N1C(CO)C(O)c1ccc([N+](=O)[O-])cc1` (stereo not drawn) belongs above 51.3 µg/mL; to `Nc1ncnc2c1ncn2C1OC(CO)C(O)C1O` (stereo not drawn), above 40.1 µg/mL; to `COc1ccc(CNc2nc3ccc(C)cc3s2)c(OC)c1OC`, 15.1 µg/mL (≈ 43.8 µM).
With `O=C1CSC(c2cccnc2)N1CC1CC1` (stereo not drawn) the figure was above 35.1 µg/mL; with `Cc1cc(C(=O)Nc2ccc3c(c2)CCC3)ccc1[N+](=O)[O-]`, below 0.3 µg/mL.
`COc1ccc(OCCC(=O)Nc2ccccc2)cc1` came in with a kinetic solubility above 40.7 µg/mL.
To `CN(C)c1c(F)cc(C(=O)NC(=O)NCc2cccnc2)cc1F` belongs 4 µg/mL (≈ 12 µM); to `CC1CCN(c2ccc(C=O)o2)CC1`, above 29 µg/mL.
With `COc1ccc(OC)c(NC(=O)CCN2CCN(CCO)CC2)c1` the figure was 45.7 µg/mL (≈ 135 µM); with `CCN(CC)c1nc2ccccc2n(Cc2cccc(OC)c2)c1=O`, 0.3 µg/mL (≈ 0.889 µM); with `Cc1[nH]c2ccccc2c1CCNC(=O)CCC(=O)c1ccccc1`, 47.7 µg/mL (≈ 143 µM).
With `O=C(Nc1nonc1-c1ccc(Cl)cc1)c1ccccc1` the figure was 0.7 µg/mL (≈ 2.34 µM); with `Cc1cccc(CC2CC(=O)N(c3nc4ccccc4s3)C2=O)c1` (stereo not drawn), 16.5 µg/mL (≈ 49 µM); with `Cc1ccc(NS(=O)(=O)c2ccc(C(=O)NC3CCN(Cc4ccccc4)CC3)cc2)cc1.Cl`, 6.4 µg/mL.
In turn, `O=C(/C=C/c1ccco1)c1cccnc1` registered a solubility (kinetic) of 23.8 µg/mL (≈ 119 µM).
With `CCOc1cc(C(F)(F)F)cnc1/C(N)=N/O` the figure was 36.9 µg/mL (≈ 148 µM); with `CCCNC(=O)c1ccc(C)c(NC(=O)C2=C(C)OCCS2)c1`, above 50.2 µg/mL; with `Nc1ccccc1C(=O)N1CCCC1`, above 28.5 µg/mL.
With `COc1cccc(C(=O)NCCCNC(=O)c2cccc(OC)c2)c1` the figure was above 51.4 µg/mL.
To `CCC1Oc2ccccc2N(CC(=O)NC2CC2)C1=O` (stereo not drawn) belongs above 41.1 µg/mL.
`CCOC(=O)C1=C(C)NC(C)=C(C(=O)OCC)C1C(=O)OCC(=O)NCc1ccccc1`: the solubility (kinetic) is above 66.7 µg/mL.
To `S=C(Nc1ccccc1Cl)N1CCN(c2ccccn2)CC1` belongs 2.3 µg/mL (≈ 6.91 µM); to `O=C(COC(=O)c1cccc([N+](=O)[O-])c1)NCc1cccs1`, 36 µg/mL (≈ 112 µM); to `OCCC1CCCCN1CC(O)COCc1ccc(Cl)cc1` (stereo not drawn), 45.1 µg/mL (≈ 138 µM).
To `O=C(O)c1cccc(S(=O)(=O)Nc2ccc(-c3ccccc3)cc2)c1` belongs above 53 µg/mL.
`NC(=O)c1cccc(C(N)=O)n1` showed a kinetic solubility above 24.8 µg/mL.
To `O=C1[C@@H]2C(c3cccnc3)=NO[C@@H]2C(=O)N1c1ccc2ccccc2c1` belongs 43 µg/mL (≈ 125 µM); to `O=C(NCc1cccnc1)C1CCC(c2ccc(Cl)cc2)CC1` (stereo not drawn), 14.9 µg/mL (≈ 45.3 µM).
Molecule `Clc1ccccc1-c1nc(-c2ccc(Br)o2)no1` had a solubility (kinetic) below 0.3 µg/mL.
`CC1CCCCC1N=C1NC(C)(C)CS1` (stereo not drawn) returned a solubility (kinetic) above 34 µg/mL.
To `CN(Cc1ccc(C(F)(F)F)cc1)C(=O)C1CC(=O)N(Cc2ccco2)C1` (stereo not drawn) belongs 51.8 µg/mL (≈ 136 µM); to `O=C(Nc1cc(Cl)cc(Cl)c1)N1CCCC1`, 34.6 µg/mL (≈ 134 µM).
To `CNC(=O)c1c(NC(=O)c2ccco2)sc(C)c1C` belongs 11.6 µg/mL (≈ 41.7 µM); to `Cc1cc(NC(=O)Nc2c[nH]c(=O)[nH]c2=O)ccc1Br`, 1.8 µg/mL (≈ 5.31 µM).
With `Cc1ccc(-c2nc(-c3ccncc3)no2)cc1` the figure was 1.1 µg/mL (≈ 4.64 µM).
Take `CC(=O)O.O=S(=O)(Cc1ccccc1)N1CCNCC1`: the solubility (kinetic) is 34.3 µg/mL.
With `O=C(CS(=O)(=O)c1ccccc1)Nc1ccc(Cl)cn1` the figure was above 46.6 µg/mL.
Take `Cc1ccc(NC(=O)c2ccccc2NC(=O)c2cccnc2)cc1`: the kinetic solubility was below 0.2 µg/mL.
To `CC(OC(=O)c1ccccc1CCc1ccccc1)C(N)=O` (stereo not drawn) belongs above 44.6 µg/mL; to `O=C(/C=C/c1ccc(Br)o1)Nc1nccs1`, 4.3 µg/mL (≈ 14.4 µM); to `CCOC(=O)c1cnc2c(cnn2C)c1NCCCn1ccnc1`, above 49.3 µg/mL.
With `Cc1cc(NC(=O)c2ccc(Cl)c([N+](=O)[O-])c2)no1` the figure was 0.8 µg/mL (≈ 2.84 µM); with `Cc1cccc(C)c1N(CC(=O)N1CCOCC1)S(C)(=O)=O`, above 49 µg/mL; with `COc1ccc(CCNC(=O)CCNC(=O)c2ccco2)cc1`, above 47.5 µg/mL.
To `O=C(Nc1ccc(F)cc1)C1C2CCC3C(CCC21)C3(Cl)Cl` (stereo not drawn) belongs 0.8 µg/mL (≈ 2.34 µM); to `O=C(Nc1nccs1)c1ccc(-c2ccc(F)c(Cl)c2)o1`, 0.5 µg/mL (≈ 1.55 µM); to `Cc1ccc([N+](=O)[O-])c(NC(=O)COC(=O)C2CC3CCCC(C2)C3=O)c1C` (stereo not drawn), above 58.3 µg/mL.
Molecule `CNC1=CC(=O)CC(c2ccccc2)C1` (stereo not drawn) displayed a kinetic solubility above 30.2 µg/mL.
With `Cc1cc(C)cc(NC(=S)NC2CC3CCCC(C2)N3C2CC2)c1` (stereo not drawn) the figure was above 51.5 µg/mL; with `Oc1ccccc1Nc1nc(-c2ccccc2O)nc2ccccc12`, below 0.2 µg/mL; with `O=C(Nc1cccc(S(=O)(=O)NC2=NCCC2)c1)c1ccccc1`, above 51.5 µg/mL.
To `O=C(COc1cccc(F)c1)Nc1nc(-c2ccncc2)cs1` belongs 5 µg/mL (≈ 15.2 µM).
With `CC(C)(C)c1ccc(C(=O)NC(=S)NCc2ccco2)cc1` the figure was 0.6 µg/mL (≈ 1.9 µM).
Consider `Cc1ccc(NC(=S)NCCc2c[nH]c3ccccc23)c(C)c1`, for which the kinetic solubility worked out at 20.4 µg/mL (≈ 63.1 µM).
With `CC(=O)N1N=C(N)SC1(C)C`, the solubility (kinetic) is above 26 µg/mL.
To `O=c1ccnc(SCCc2ccc([N+](=O)[O-])cc2)[nH]1` belongs 21.6 µg/mL (≈ 77.9 µM); to `C=CCN(Cc1cccc(OC)c1OC)C(=O)Oc1ccccc1`, 9.6 µg/mL (≈ 29.3 µM); to `CCc1cccc2c(C(=O)COC(=O)[C@@H]3CC(O)CN3S(=O)(=O)c3ccccc3[N+](=O)[O-])c[nH]c12` (stereo partly drawn), 30.6 µg/mL (≈ 61 µM).
As to `CCN(CC)P(=O)(c1nccn1C)N(CC)CC`, the solubility (kinetic) was found to be 40.7 µg/mL (≈ 149 µM).
On to `Cc1ccc(NC(=O)N2CCCCCC2)c(C)c1`, for which the solubility (kinetic) is above 37 µg/mL.
As to `O=C(Nc1ccc(F)cc1F)N1CCN(CCc2ccccc2)CC1`, the solubility (kinetic) was found to be 42.7 µg/mL (≈ 124 µM).
With `CCCCNC(=O)CSc1nc(CCC)nc2ccccc12` the figure was 4 µg/mL (≈ 12.6 µM); with `COc1ccc([N+](=O)[O-])cc1NC(=O)C1(c2ccccc2)CCOCC1`, 6.7 µg/mL (≈ 18.8 µM); with `Cc1cc(NC(=O)C(C)C)ncc1NC(=O)c1ccco1`, above 43.1 µg/mL.
With `N#Cc1c(N2CCOCC2)nsc1-c1ccc(C(F)(F)F)cc1` the figure was below 0.2 µg/mL; with `CN(Cc1ccccc1Cl)C(=O)c1cc2ccccc2o1`, 13.7 µg/mL (≈ 45.7 µM).
With `O=C(COC(=O)c1cc([N+](=O)[O-])ccc1Cl)NC1CCCC1` the figure was above 49 µg/mL.
Take `Cc1ccc(C(=O)NN2CCOCC2)cc1[N+](=O)[O-]`: the solubility (kinetic) was above 39.8 µg/mL.
As to `Cc1cnc(C(=O)OCC(=O)N(Cc2ccccc2)C(C)(C)C)cn1`, the solubility (kinetic) is above 51.2 µg/mL.
To `NC(=O)c1cnccn1` belongs above 18.5 µg/mL.
To `N#Cc1ccccc1NC(=O)CN1C(=O)NC2(CCCC2)C1=O` belongs above 46.8 µg/mL; to `CSc1ccc(C2Nc3cccc4cccc(c34)N2)cc1`, 2.4 µg/mL (≈ 8.21 µM); to `CC(=O)Nc1cc(Br)ccc1O`, 32.6 µg/mL (≈ 142 µM).
